Test results as given in ChEMBL document CHEMBL3112488, “Discovery of C-(1-aryl-cyclohexyl)-methylamines as selective, orally available inhibitors of dipeptidyl peptidase IV” (Bioorg Med Chem Lett, 2014).
Values belong to the compound of their own block, whether it stands above or below them.

Legend:
Rattus norvegicus [1] = species: Rattus norvegicus; assay: animal or person; settings: Sprague-Dawley, Plasma, po, 8 h, read-out: INH
Rattus norvegicus [2] = species: Rattus norvegicus; assay: animal or person; settings: Sprague-Dawley, Plasma, po, read-out: INH
[3] = Oral bioavailability in rat at 3 mg/kg administered in PBS buffer at pH 6.8; type: ADME, organism-based; settings: in vivo
[4] = Clearance in rat at 1 mg/kg, iv administered in PBS buffer at pH 6.8; type: ADME, organism-based; parameters: dose 1 mg/kg, route intravenous; settings: in vivo
[5] = Half life in rat at 1 mg/kg, iv administered in PBS buffer at pH 6.8; type: ADME, organism-based; parameters: dose 1 mg/kg, route intravenous; settings: in vivo
[6] = Volume of distribution at steady state in rat at 1 mg/kg, iv administered in PBS buffer at pH 6.8; type: ADME, organism-based; parameters: dose 1 mg/kg, route intravenous; settings: in vivo, read-out: Vdss
[7] = AUC (0 to 8 hrs) in rat at 3 mg/kg, po administered in PBS buffer at pH 6.8; type: ADME, organism-based; parameters: time < 8 hr, dose 3 mg/kg, route oral; settings: plasma
[8] = Cmax in rat at 3 mg/kg, po administered in PBS buffer at pH 6.8; type: ADME, organism-based; parameters: dose 3 mg/kg, route oral; settings: in vivo
[9] = Tmax in rat at 3 mg/kg, po administered in PBS buffer at pH 6.8; type: ADME, organism-based; parameters: dose 3 mg/kg, route oral; settings: in vivo
[10] = molecular target: Voltage-gated inwardly rectifying potassium channel KCNH2 (Homo sapiens, UniProt Q12809); assay: Inhibition of human ERG by dofetilide binding assay
Cytochrome P450 2D6 = Cytochrome P450 2D6 (Homo sapiens, UniProt P10635); assay: Inhibition of CYP2D6 (unknown origin); type: ADME
[11] = Intrinsic clearance in rat liver microsomes; type: ADME
[12] = Permeability from basolateral to apical side in human Caco2 cells; type: ADME, cell-based; settings: Caco-2, read-out: permeability
[13] = Permeability from apical to basolateral side in human Caco2 cells; type: ADME, cell-based; settings: Caco-2, read-out: permeability
Dipeptidyl peptidase 9 = Dipeptidyl peptidase 9 (Homo sapiens, UniProt Q86TI2); assay: Inhibition of human recombinant DPP9
Dipeptidyl peptidase 8 = Dipeptidyl peptidase 8 (Homo sapiens, UniProt Q6V1X1); assay: Inhibition of human recombinant DPP8
[14] = Oral bioavailability in rat at 3 mg/kg administered in sodium acetate buffer at pH 4.63; type: ADME, organism-based; settings: in vivo
[15] = Clearance in rat at 1 mg/kg, iv administered in sodium acetate buffer at pH 4.63; type: ADME, organism-based; parameters: dose 1 mg/kg, route intravenous; settings: in vivo
[16] = Half life in rat at 1 mg/kg, iv administered in sodium acetate buffer at pH 4.63; type: ADME, organism-based; parameters: dose 1 mg/kg, route intravenous; settings: in vivo
[17] = Volume of distribution at steady state in rat at 1 mg/kg, iv administered in sodium acetate buffer at pH 4.63; type: ADME, organism-based; parameters: dose 1 mg/kg, route intravenous; settings: in vivo, read-out: Vdss
[18] = AUC (0 to 8 hrs) in rat at 3 mg/kg, po administered in sodium acetate buffer at pH 4.63; type: ADME, organism-based; parameters: time < 8 hr, dose 3 mg/kg, route oral; settings: plasma
[19] = Cmax in rat at 3 mg/kg, po administered in sodium acetate buffer at pH 4.63; type: ADME, organism-based; parameters: dose 3 mg/kg, route oral; settings: in vivo
[20] = Tmax in rat at 3 mg/kg, po administered in sodium acetate buffer at pH 4.63; type: ADME, organism-based; parameters: dose 3 mg/kg, route oral; settings: in vivo
[21] = Oral bioavailability in rat at 3 mg/kg administered in 10% PEG300/90% PBS; type: ADME, organism-based; settings: in vivo
[22] = Clearance in rat at 1 mg/kg, iv administered in 10% PEG300/90% PBS; type: ADME, organism-based; parameters: dose 1 mg/kg, route intravenous; settings: in vivo
[23] = Half life in rat at 1 mg/kg, iv administered in 10% PEG300/90% PBS; type: ADME, organism-based; parameters: dose 1 mg/kg, route intravenous; settings: in vivo
[24] = Volume of distribution at steady state in rat at 1 mg/kg, iv administered in 10% PEG300/90% PBS; type: ADME, organism-based; parameters: dose 1 mg/kg, route intravenous; settings: in vivo, read-out: Vdss
[25] = AUC (0 to 8 hrs) in rat at 3 mg/kg, po administered in 10% PEG300/90% PBS; type: ADME, organism-based; parameters: time < 8 hr, dose 3 mg/kg, route oral; settings: plasma
[26] = Cmax in rat at 3 mg/kg, po administered in 10% PEG300/90% PBS; type: ADME, organism-based; parameters: dose 3 mg/kg, route oral; settings: in vivo
[27] = Tmax in rat at 3 mg/kg, po administered in 10% PEG300/90% PBS; type: ADME, organism-based; parameters: dose 3 mg/kg, route oral; settings: in vivo
Rattus norvegicus [28] = species: Rattus norvegicus; assay: animal or person; settings: Sprague-Dawley, Plasma, po, 0.5 h, read-out: INH

Chain of Voltage-gated inwardly rectifying potassium channel KCNH2 (Q12809 whole entry): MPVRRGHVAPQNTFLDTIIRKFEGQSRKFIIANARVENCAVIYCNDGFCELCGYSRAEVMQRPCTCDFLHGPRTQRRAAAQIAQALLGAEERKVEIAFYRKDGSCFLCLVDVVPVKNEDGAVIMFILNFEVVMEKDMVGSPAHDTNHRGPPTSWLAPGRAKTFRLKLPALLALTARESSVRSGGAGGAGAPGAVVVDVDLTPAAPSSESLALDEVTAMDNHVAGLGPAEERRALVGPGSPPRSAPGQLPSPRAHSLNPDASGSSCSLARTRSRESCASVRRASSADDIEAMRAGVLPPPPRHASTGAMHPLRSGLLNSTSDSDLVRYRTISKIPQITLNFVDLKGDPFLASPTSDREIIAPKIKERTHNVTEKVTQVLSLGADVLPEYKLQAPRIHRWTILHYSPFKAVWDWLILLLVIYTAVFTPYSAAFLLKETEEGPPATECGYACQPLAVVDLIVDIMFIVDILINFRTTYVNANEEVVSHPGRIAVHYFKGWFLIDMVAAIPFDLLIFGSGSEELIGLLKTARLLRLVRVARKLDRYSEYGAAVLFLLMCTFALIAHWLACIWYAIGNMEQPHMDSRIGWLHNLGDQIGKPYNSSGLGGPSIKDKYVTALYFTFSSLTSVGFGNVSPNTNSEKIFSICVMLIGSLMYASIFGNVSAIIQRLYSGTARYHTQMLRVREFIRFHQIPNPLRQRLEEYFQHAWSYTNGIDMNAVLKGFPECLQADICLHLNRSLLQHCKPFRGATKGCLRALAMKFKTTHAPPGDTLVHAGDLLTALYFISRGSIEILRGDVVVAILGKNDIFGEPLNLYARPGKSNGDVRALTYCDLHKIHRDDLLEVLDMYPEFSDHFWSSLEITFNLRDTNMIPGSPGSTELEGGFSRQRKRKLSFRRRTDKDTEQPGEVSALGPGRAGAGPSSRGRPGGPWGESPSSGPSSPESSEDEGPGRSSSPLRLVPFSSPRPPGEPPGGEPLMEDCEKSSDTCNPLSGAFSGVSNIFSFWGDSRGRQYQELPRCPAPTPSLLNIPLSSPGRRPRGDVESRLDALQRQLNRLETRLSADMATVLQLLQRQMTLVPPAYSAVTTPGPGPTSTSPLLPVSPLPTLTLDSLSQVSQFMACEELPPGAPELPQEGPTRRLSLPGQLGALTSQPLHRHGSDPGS
Chain of Dipeptidyl peptidase 9 (Q86TI2 whole entry): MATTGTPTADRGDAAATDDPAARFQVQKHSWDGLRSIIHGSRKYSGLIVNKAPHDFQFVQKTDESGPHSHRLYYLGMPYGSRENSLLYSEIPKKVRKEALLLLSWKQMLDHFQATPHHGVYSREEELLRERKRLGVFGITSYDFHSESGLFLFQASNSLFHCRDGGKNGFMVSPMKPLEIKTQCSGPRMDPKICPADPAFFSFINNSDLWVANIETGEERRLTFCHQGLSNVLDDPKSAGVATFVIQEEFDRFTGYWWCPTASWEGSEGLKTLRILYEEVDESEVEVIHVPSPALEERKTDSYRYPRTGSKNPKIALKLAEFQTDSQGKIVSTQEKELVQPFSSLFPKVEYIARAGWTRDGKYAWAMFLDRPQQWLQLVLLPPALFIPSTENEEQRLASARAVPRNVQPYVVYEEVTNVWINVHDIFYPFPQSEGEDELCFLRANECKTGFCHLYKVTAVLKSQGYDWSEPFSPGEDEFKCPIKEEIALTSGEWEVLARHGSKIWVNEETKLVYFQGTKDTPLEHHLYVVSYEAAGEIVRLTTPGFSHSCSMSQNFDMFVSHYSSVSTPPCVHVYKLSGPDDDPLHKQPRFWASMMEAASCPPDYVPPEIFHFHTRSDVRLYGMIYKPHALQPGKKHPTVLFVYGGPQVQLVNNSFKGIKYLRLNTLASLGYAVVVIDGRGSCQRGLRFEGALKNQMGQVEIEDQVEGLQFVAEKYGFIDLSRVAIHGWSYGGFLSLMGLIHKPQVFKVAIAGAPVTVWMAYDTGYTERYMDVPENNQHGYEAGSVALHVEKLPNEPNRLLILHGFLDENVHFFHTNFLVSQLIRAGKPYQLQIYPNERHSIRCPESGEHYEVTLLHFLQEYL
Chain of Cytochrome P450 2D6 (P10635 whole entry): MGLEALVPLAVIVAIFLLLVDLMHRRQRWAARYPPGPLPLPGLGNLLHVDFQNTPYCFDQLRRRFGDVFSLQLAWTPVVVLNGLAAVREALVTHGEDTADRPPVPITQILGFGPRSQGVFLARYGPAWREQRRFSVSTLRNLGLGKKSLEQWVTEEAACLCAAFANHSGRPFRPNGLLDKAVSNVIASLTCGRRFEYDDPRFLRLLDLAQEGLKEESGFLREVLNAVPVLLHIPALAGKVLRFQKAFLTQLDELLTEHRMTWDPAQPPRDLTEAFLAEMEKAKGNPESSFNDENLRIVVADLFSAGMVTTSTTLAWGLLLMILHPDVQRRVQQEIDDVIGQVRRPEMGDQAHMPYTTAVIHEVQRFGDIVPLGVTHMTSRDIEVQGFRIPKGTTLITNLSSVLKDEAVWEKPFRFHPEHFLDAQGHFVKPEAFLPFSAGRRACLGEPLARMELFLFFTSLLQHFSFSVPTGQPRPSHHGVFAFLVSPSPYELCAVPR
Chain of Dipeptidyl peptidase 8 (Q6V1X1 whole entry): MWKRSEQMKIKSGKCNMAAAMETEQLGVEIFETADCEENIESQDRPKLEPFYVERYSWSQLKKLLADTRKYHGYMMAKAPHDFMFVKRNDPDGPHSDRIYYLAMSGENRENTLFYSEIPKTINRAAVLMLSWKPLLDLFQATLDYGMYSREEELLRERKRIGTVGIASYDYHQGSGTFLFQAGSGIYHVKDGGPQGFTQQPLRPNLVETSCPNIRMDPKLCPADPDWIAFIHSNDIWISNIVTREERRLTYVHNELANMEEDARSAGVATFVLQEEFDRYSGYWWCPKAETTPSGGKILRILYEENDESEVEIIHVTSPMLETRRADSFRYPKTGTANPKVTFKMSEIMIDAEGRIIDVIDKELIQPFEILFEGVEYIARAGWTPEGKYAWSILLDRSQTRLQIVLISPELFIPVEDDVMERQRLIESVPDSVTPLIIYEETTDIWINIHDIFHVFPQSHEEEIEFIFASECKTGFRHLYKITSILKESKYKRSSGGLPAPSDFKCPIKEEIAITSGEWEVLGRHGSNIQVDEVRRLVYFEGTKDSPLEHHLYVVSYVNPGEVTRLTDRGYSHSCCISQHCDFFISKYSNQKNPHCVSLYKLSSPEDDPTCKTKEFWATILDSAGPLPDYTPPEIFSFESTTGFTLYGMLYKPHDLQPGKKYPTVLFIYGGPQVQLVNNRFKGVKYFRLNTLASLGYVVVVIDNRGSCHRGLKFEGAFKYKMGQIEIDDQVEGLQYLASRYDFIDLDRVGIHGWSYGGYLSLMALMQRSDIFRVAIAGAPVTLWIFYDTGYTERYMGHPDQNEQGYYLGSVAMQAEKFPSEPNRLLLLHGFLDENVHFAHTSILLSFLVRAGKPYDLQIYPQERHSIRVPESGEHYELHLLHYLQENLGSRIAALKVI

Structure (SMILES): N[C@@H](CC(=O)N1CCn2c(nnc2C(F)(F)F)C1)Cc1cc(F)c(F)cc1F [SITAGLIPTIN]
inhibition in vivo at 3 mg/kg (Rattus norvegicus [1]): 30%
inhibition in vivo at 3 mg/kg (Rattus norvegicus [2]): 82%

Structure (SMILES): NC[C@]1(c2cccc(Cl)c2)CC[C@H](N2CCn3c(nnc3C(F)(F)F)C2=O)CC1
bioavailability [3]: 17%
clearance [4]: 69 mL/min/kg
half-life [5]: 2.7 h
Vd [6]: 11.7 L/kg
AUC(0-t) at 8 h [7]: 0.214 µM·h
Cmax [8]: 57.8 nM
Tmax [9]: 3.3 h
IC50 [10]: > 30 µM
IC50 (Cytochrome P450 2D6): 4.5 µM
CLint [11]: 21.9 µL/min/mg
Papp B→A [12]: 4.8 ×10⁻⁶ cm/s
Papp A→B [13]: 1.6 ×10⁻⁶ cm/s

Structure (SMILES): NC[C@]1(c2cccc(Cl)c2)CC[C@H](N2CCc3c(nc(C(F)(F)F)nc3C3CC3)C2)CC1
IC50 (Dipeptidyl peptidase 9): > 30 µM
IC50 (Dipeptidyl peptidase 8): > 30 µM

Structure (SMILES): NC[C@]1(c2cccc(Cl)c2)CC[C@H](n2nc(-c3cccnc3)ccc2=O)CC1
bioavailability [21]: 92%
clearance [22]: 29 mL/min/kg
half-life [23]: 2.2 h
Vd [24]: 3.9 L/kg
AUC(0-t) at 8 h [25]: 4.01 µM·h
Cmax [26]: 921 nM
Tmax [27]: 1.8 h
IC50 [10]: 4.4 µM
IC50 (Cytochrome P450 2D6): > 10 µM
CLint [11]: 51.1 µL/min/mg
Papp B→A [12]: 13 ×10⁻⁶ cm/s
Papp A→B [13]: 8.6 ×10⁻⁶ cm/s
IC50 (Dipeptidyl peptidase 9): > 30 µM
IC50 (Dipeptidyl peptidase 8): > 30 µM
inhibition in vivo at 3 mg/kg (Rattus norvegicus [28]): 91%
inhibition in vivo at 3 mg/kg (Rattus norvegicus [1]): 80%

Now from value to compound, other results behind:

bioavailability [14]: 78%
clearance [15]: 9.5 mL/min/kg
half-life [16]: 2.3 h
Vd [17]: 2.1 L/kg
AUC(0-t) at 8 h [18]: 7.91 µM·h
Cmax [19]: 1900 nM
Tmax [20]: 3.3 h
IC50 (Cytochrome P450 2D6): 10 µM
CLint [11]: 43.4 µL/min/mg
Papp B→A [12]: 11 ×10⁻⁶ cm/s
Papp A→B [13]: 4.4 ×10⁻⁶ cm/s
Structure (SMILES): NC[C@]1(c2cccc(Cl)c2)CC[C@H](N2CCc3c(nc(C(F)(F)F)nc3C3CC3)C2=O)CC1
IC50 [10]: 0.26 µM

IC50 (Dipeptidyl peptidase 9): 30 µM
Structure (SMILES): NC[C@]1(c2cccc(Cl)c2)CC[C@H](N2CCn3c(nnc3C(F)(F)F)C2)CC1

IC50 (Dipeptidyl peptidase 9): > 30 µM
Structure (SMILES): Cc1ccc(=O)n([C@H]2CC[C@](CN)(c3cccc(Cl)c3)CC2)n1
